Measurements as given in patent publication US4544512A, “Tridecyloxy- or tetradecyloxy-propane derivatives” (Takeda Chemical Industries, Ltd., priority 1980, dated 1985).
Values after ≈ are worked out from the molar mass of the structure shown. Like-named read-outs stand apart in the source and are kept apart here.

Legend:
Format in all cases: cell-based
[1] = tested on: Trichophyton mentagrophytes IFO (DT-66); test: Antitrichophyton activity, serial dilution method (MIC); settings: Sabouraud's agar medium
Experimental: (§1) Referring to the antitrichophyton activity shown in Table 7, MIC values of tested compounds were determined by the serial dilution method using Sabouraud's agar medium.

[2] = tested on: Trichophyton rubrum IFO 5467 (DT-63); test: as above; settings: IFO5467, Sabouraud's agar medium
Experimental: as §1

Tetrahymena pyriformis W = test: Antiprotozoal activity, broth dilution method (MIC); settings: 28° C., 44-48 hours, read-out: MIC against Tetrahymena pyriformis W
Experimental: Referring to the antiprotozoal activity given in Table 4, the microbial growth inhibiting activity (MIC) of each compound of this invention was assayed by the broth dilution method by incubating Tetrahymena pyriformis W strain as the test organism at 28° C. for 44-48 hours, using a test culture medium comprising 20 g of Tryptose peptine (Difco), 1 g of yeast extract, 2 g of glucose. 1,000 ml of distilled water and 10 ml of 1M phosphate buffer (pH 7.0).

[3] = tested on: Cryptococcus unigtullatas; test: Antimycotic activity, paper disk inhibition zone; settings: 48 h, concentration of 3 mg/ml, paper disk 8 mm, 37° C., 2 days, read-out: Inhibition zone diameters
Experimental: Referring to the antimycotic activity presented in Table 5, Cryptococcus unigtullatas and others were used as the test microbes, a paper disk (8 mm in diameter) was immersed in an aqueous solution of each test compound having a concentration of 3 mg/ml, air dried and placed on an agar medium, then incubation was conducted at 37° C. for 2 days, and the diameter (mm) of the inhibition zone was measured.

Pyricularia oryzae = test: microbe, parasite or virus in culture; settings: read-out: MIC Pyricularia oryzae (rice blast)
Cochliobolus miyabeanus = test: Antifungal activity, serial dilution method (MIC); settings: Bipolaris oryzae, read-out: MIC Cochliobolus miyabeanus (rice Helminthosporium leaf spot)
Gibberella fujikuroi = test: Antifungal activity, serial dilution method (MIC); settings: Fusarium fujikuroi; 1% glucose-bouillon agar medium; read-out: MIC Gibberella fujikuroi (rice Bakanae-disease)
Botrytis cinerea = test: Antifungal activity, serial dilution method (MIC); settings: read-out: MIC Botrytis cinerea (gray mold)
Alternaria solani = test: Antifungal activity, serial dilution method (MIC); settings: 1% glucose-bouillon agar medium, read-out: MIC Alternaria solani (potato early blight)
Leptosphaeria salvinii = test: Antifungal activity, serial dilution method (MIC); settings: Nakataea oryzae; 1% glucose-bouillon agar medium; read-out: MIC Leptosphaeria salvinii (rice stem rot)
[4] = tested on: Colletotrichum lagenarium; test: Antifungal activity, serial dilution method (MIC); settings: Colletotrichum orbiculare, read-out: MIC Colletotrichum lagenarium (cucumber anthracnose)
[5] = tested on: mouse myeloid leukemia M1 cells; test: Induced differentiation of mouse myeloid leukemia M1 cells; settings: at optimal dose: C00019 1 μg/ml, drawing 20 2 μg/ml
Experimental: By employing soft-agar medium having similar components to those in Test Example 1, incubation of myeloid leukemia (M1) cells harvested from mice was conducted in the presence of the test compound in its optimal concentration. Observation on various biological and biochemical properties caused by induced differentiation was conducted. In Table 2 are given the results obtained by determination of the degree of the induced differentiation employing, as the indexes, among those properties, morphological changes (matured granulocytes, matured macrophages, others caused by changes in appearance of cells at the stage of differentiation),phagocytic activity (plastic small pieces.phagocytosis) and lysozyme activity. Additionally stating, these morphological changes were not observed under the conditions devoid of the drugs.

[6] = 1% glucose-bouillon agar medium

## CCCCCCCCCCCCCCOCC(COP(=O)([O-])OCC[N+](C)(C)C)OC (stereo not shown) [R = C14 H29, A = drawing 35]
[1]
  MIC: 3.12 µg/mL (≈ 6.67 µM)
[2]
  MIC: 1.56 µg/mL (≈ 3.34 µM)

## CCCCCCCCCCCCCOCCCOP(=O)([O-])OCC[N+](C)(C)C [drawing 25 R = C13 H27]
Tetrahymena pyriformis W
  MIC: 0.2 µg/mL (≈ 0.472 µM)

## CCCCCCCCCCCCOCCCOP(=O)(O)OCCN [drawing 26 R = C12 H25]
Tetrahymena pyriformis W
  MIC: 2 µg/mL (≈ 5.44 µM)

## CCCCCCCCCCCCCCCCCCOCCCOP(=O)([O-])OCC[N+](C)(C)C [drawing 29 R = C18 H37]
[3]
  zone of inhibition at 3000 µg/mL: 17 mm

## CCCCCCCCCCCCCCOCC(COP(=O)(O)OCCN)OC (stereo not shown) [drawing 24 R = C14 H29]
Tetrahymena pyriformis W
  MIC: 2 µg/mL (≈ 4.7 µM)

## CCCCCCCCCCCCCCCCCCOCC(COP(=O)([O-])OCC[N+](C)(C)C)OC (stereo not shown) [Compound (A) R = C18 H37, reference compound]
Pyricularia oryzae
  MIC: 6.25 µg/mL (≈ 11.9 µM)
Cochliobolus miyabeanus
  MIC: > 100 µg/mL
Gibberella fujikuroi
  MIC: > 100 µg/mL
Botrytis cinerea; [6]
  MIC: 25 µg/mL (≈ 47.7 µM)
Alternaria solani
  MIC: > 100 µg/mL
Leptosphaeria salvinii
  MIC: 12.5 µg/mL (≈ 23.9 µM)
[4]; [6]
  MIC: > 100 µg/mL

## CCCCCCCCCCCCCCOCC(COP(=O)([O-])OCC[N+](C)(C)C)OC (stereo not shown) [drawing 27 R = C14 H29]
[3]
  zone of inhibition at 3000 µg/mL: 22 mm

## CCCCCCCCCCCCCCCCCCOCCCOP(=O)(O)OCCN [drawing 26 R = C18 H37]
Tetrahymena pyriformis W
  MIC: 4 µg/mL (≈ 8.86 µM)

## CCCCCCCCCCCCCOCC(COP(=O)([O-])OCC[n+]1ccccc1)OC (stereo not shown) [R = C13 H27, A = drawing 34]
[1]
  MIC: 12.5 µg/mL (≈ 26.4 µM)
[2]
  MIC: 3.12 µg/mL (≈ 6.59 µM)

## CCCCCCCCCCCCOCC(COP(=O)([O-])OCC[N+](C)(C)C)OC (stereo not shown) [R = C12 H25, A = drawing 32, reference compound]
[1]
  MIC: 25 µg/mL (≈ 56.9 µM)
[2]
  MIC: 6.25 µg/mL (≈ 14.2 µM)

## CCCCCCCCCCCCCCOCCCOP(=O)([O-])OCC[N+](C)(C)C [drawing 25 R = C14 H29]
Tetrahymena pyriformis W
  MIC: 0.2 µg/mL (≈ 0.457 µM)

## CCCCCCCCCCCCOCC(COP(=O)(O)OCCN)OC (stereo not shown) [drawing 28 R = C12 H25]
[3]
  zone of inhibition at 3000 µg/mL: < 5 mm

## CCCCCCCCCCCCCCOCC(COP(=O)(O)OCCN)OC (stereo not shown) [drawing 28 R = C14 H29]
[3]
  zone of inhibition at 3000 µg/mL: 13.5 mm

## CCCCCCCCCCCCCCCCCCOCCCOP(=O)([O-])OCC[N+](C)(C)C [drawing 25 R = C18 H37]
Tetrahymena pyriformis W
  MIC: 2 to 4 µg/mL (≈ 4.05 to 8.1 µM)

## CCCCCCCCCCCCCOCC(COP(=O)([O-])OCC[N+](C)(C)C)OC (stereo not shown) [Compound (A) R = C13 H27]
Pyricularia oryzae
  MIC: 12.5 µg/mL (≈ 27.6 µM)
Cochliobolus miyabeanus
  MIC: > 100 µg/mL
Gibberella fujikuroi
  MIC: > 100 µg/mL
Botrytis cinerea
  MIC: 12.5 µg/mL (≈ 27.6 µM)
Alternaria solani
  MIC: 50 µg/mL (≈ 110 µM)
Leptosphaeria salvinii
  MIC: 6.25 µg/mL (≈ 13.8 µM)
[4]; [6]
  MIC: 6.25 µg/mL (≈ 13.8 µM)

## CCCCCCCCCCCCCCOCC(COP(=O)([O-])OCC[N+](C)(C)C)OC (stereo not shown) [drawing 23 R = C14 H29]
Tetrahymena pyriformis W
  MIC: 0.2 µg/mL (≈ 0.428 µM)

## CCCCCCCCCCCCCCCCCCOCC(COP(=O)([O-])OCC[N+](C)(C)C)OC (stereo not shown) [drawing 27 R = C18 H37]
[3]
  zone of inhibition at 3000 µg/mL: 18 mm

## CCCCCCCCCCCCCCCCCCOCC(COP(=O)([O-])OCC[N+](C)(C)C)OC (stereo not shown) [drawing 19, reference compound]
[5]; None 2.0 %
  Phagocytic cells: 13.4%
[5]; None 2.1 %
  Morphological change: 34.7%
[5]; None 2.2
  Lysozyme activity: 31.1 units/mg protein

## CCCCCCCCCCCCOCCCOP(=O)([O-])OCC[N+](C)(C)C [drawing 25 R = C12 H25]
Tetrahymena pyriformis W
  MIC: 1 µg/mL (≈ 2.44 µM)

## CCCCCCCCCCCCOCCCOP(=O)([O-])OCC[N+](C)(C)C [Compound (B) R = C12 H25, reference compound]
Pyricularia oryzae
  MIC: 12.5 µg/mL (≈ 30.5 µM)
Cochliobolus miyabeanus
  MIC: 6.25 µg/mL (≈ 15.3 µM)
Gibberella fujikuroi
  MIC: 100 µg/mL (≈ 244 µM)
Botrytis cinerea; [6]
  MIC: 25 µg/mL (≈ 61 µM)
Alternaria solani
  MIC: 50 µg/mL (≈ 122 µM)
Leptosphaeria salvinii
  MIC: 25 µg/mL (≈ 61 µM)
[4]
  MIC: 6.25 µg/mL (≈ 15.3 µM)
